Data as given in patent US7259136B2, “Compositions and methods for treating peripheral vascular disease” (Amylin Pharmaceuticals, Inc., priority 1999, dated 2007).
Where no end group is shown, it is not given here.

Columns and labels:
[1] = test system: Cardiac Muscle Ischemia and Reperfusion; experiment: LAD coronary artery occlusion (25 min) and reperfusion (2 h) in anesthetized rats; type: in vivo, Wistar rats
Protocol: Wistar rats were anesthetized with thiopentone sodium. The left anterior descending (LAD) coronary artery was occluded. After 25 minutes of occlusion, reperfusion was allowed for 2 hours. This animal model has been described previously. Zacharowski, et al. […] Br. J. Pharmacol. 128, 945–952.
GLP-1 (1.5 microgram/kg/min) was infused into anesthetized rats (n=10), commencing 10 minutes prior to reperfusion and continuing throughout the 2-hour reperfusion. Controls were sham operated with no occlusion (n=7), LAD occlusion+reperfusion+administration of saline (n=12), and LAD occlusion and reperfusion with vehicle (10 mM sodium acetate, 5.05% D-mannitol, pH 4.5, 1.5 mL/kg/hour; n=10).
Following reperfusion, the coronary artery was reoccluded, and Evans Blue dye (4 ml, 2% w/v) was injected into the left ventricle of the heart via a right carotid artery cannula. Evans Blue stains the perfused myocardium, while the occluded vascular bed remains uncolored. Animals were euthanized by anesthetic overdose and the hearts were removed for examination. Hearts were sectioned and the right ventricular wall was removed. The area at risk (pink) was separated from the non-ischemic tissue (blue). The area at risk (pink) was then cut into smaller pieces and stained with p-nitroblue tetrazolium (NBT; 0.5 mg/ml) for 20 min. at 37° C. In the presence of intact dehydrogenase enzyme systems (viable myocardium), NBT forms a dark blue compound. Areas of necrosis lack the enzyme and remain unstained. Tissue was separated according to staining and weighed to determine infarct size as a percentage of the area at risk.

[2] = test system: Cardiac Muscle Ischemia and Reperfusion; experiment: Left circumflex coronary occlusion (10 min) and reperfusion in dogs; type: in vivo
Protocol: Two dogs were studied at baseline before, during, and for 6 hours after a 10-minute complete left circumflex coronary (LCx) occlusion. Each dog underwent occlusion/reperfusion in the presence and absence of GLP-1 infusion for […], beginning 1 minute prior to reperfusion.

pancreas = settings: cited from earlier work

| Substance | infarct size as a percentage of the area at risk ([1]; GLP-1 1.5 microgram/kg/min infusion from 10 min prior to reperfusion throughout 2-hour reperfusion, n=10) | reduction in infarct size compared with the vehicle group ([1]; GLP-1 1.5 microgram/kg/min infusion, p<0.05) | hemodynamics ([1]; GLP-1 infusion) | stunning period ([2]; dogs, GLP-1 during reperfusion after subcritical ischemia) | recovery of ventricular wall regional dysfunction ([2]; two dogs, GLP-1 infusion for 24 hours beginning 1 minute prior to reperfusion, after 10 minutes of coronary artery occlusion) | stimulation of production or release of insulin from the pancreas (pancreas) |
| --- | --- | --- | --- | --- | --- | --- |
| glucagon-like peptide-1 [GLP-1] | 31+/−4 % of the area at risk | approximately 33% | significantly improved hemodynamics | significantly reduced the stunning period | enhanced the recovery of ventricular wall regional dysfunction | – |
| GLP-1(9-37): DPP IV inactivation product of GLP-1(7-37), SEQ ID NO:5 (EGTFTSDVSSYLEGQAAKEFIAWLVKGRG; mammalian) | – | – | – | – | – | do not stimulate production or release of insulin |
| GLP-1(9-36)amide: DPP IV inactivation product of GLP-1(7-36)amide, SEQ ID NO:6 (EGTFTSDVSSYLEGQAAKEFIAWLVKGR-NH2) | – | – | – | – | – | do not stimulate production or release of insulin |
